According to BindingDB's records for doi:10.1016/j.bmcl.2010.04.069 (Boehringer Ingelheim Pharmaceuticals, 2010):
pIC50: −log10 of the molar value.

Experiment: Inhibition of CDC42

O=C(Nc1cc2cc[nH]c(=O)c2cc1Cl)[C@@H]1CNC[C@H]1c1ccc(Cl)cc1 [(3S,4R)-N-(7-chloro-1-oxo-1,2-dihydroisoquinolin-6-yl)-4-(4-chlorophenyl)pyrrolidine-3-carboxamide]
pIC50: 7.27
